Assay results as given in ChEMBL document CHEMBL1131209 (J Med Chem, 1998).

Assays:
[1] = biological target: Glutamate receptor ionotropic, NMDA 2C (Rattus norvegicus, UniProt Q00961); experiment: Compound was tested for its binding affinity towards PCP receptor using [3H](+)-NANM in the presence of 5 uM haloperidol from rat brain
[2] = biological target: Muscarinic acetylcholine receptor M3 (Rattus norvegicus, UniProt P08483); experiment: Compound was tested for its binding affinity towards Muscarinic acetylcholine receptor M3 using [3H]NMS from rat submaxillary gland
Sigma 2 receptor = experiment: Binding affinity towards sigma 2 receptor using [3H]DTG in the presence of 200 nM (+)-NANM from guinea pig brain; parameters: species or system Cavia porcellus
Opioid receptor = Opioid receptor (Rattus norvegicus, UniProt P33533+P34975+P33535); experiment: Compound was tested for its binding affinity towards Opioid receptors using [3H]naloxone from rat whole brain
[3] = biological target: T1, Muscarinic acetylcholine receptor M2 (Rattus norvegicus, UniProt P10980); experiment: Compound was tested for its binding affinity towards Muscarinic acetylcholine receptor M2 using [3H]NMS from rat heart
T1 sequence (P10980 whole entry): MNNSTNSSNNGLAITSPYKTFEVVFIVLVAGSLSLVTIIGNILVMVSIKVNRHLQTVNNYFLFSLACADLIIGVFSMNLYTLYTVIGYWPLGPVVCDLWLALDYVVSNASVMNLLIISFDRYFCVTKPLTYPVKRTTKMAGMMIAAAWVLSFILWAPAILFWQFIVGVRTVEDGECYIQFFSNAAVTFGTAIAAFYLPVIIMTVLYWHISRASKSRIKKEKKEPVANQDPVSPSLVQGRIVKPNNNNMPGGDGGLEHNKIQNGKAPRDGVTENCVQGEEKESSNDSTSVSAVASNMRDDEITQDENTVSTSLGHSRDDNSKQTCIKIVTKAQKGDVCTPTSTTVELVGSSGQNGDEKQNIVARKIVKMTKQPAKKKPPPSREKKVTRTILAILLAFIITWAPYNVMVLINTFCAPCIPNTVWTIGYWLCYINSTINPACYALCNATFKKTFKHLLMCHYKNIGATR

[4] = biological target: T2, Alpha-1A adrenergic receptor (Rattus norvegicus, UniProt P43140); experiment: Compound was tested for its binding affinity towards Alpha-1A adrenergic receptor using [3H]prazosin from rat submaxillary gland
T2 sequence (P43140 whole entry): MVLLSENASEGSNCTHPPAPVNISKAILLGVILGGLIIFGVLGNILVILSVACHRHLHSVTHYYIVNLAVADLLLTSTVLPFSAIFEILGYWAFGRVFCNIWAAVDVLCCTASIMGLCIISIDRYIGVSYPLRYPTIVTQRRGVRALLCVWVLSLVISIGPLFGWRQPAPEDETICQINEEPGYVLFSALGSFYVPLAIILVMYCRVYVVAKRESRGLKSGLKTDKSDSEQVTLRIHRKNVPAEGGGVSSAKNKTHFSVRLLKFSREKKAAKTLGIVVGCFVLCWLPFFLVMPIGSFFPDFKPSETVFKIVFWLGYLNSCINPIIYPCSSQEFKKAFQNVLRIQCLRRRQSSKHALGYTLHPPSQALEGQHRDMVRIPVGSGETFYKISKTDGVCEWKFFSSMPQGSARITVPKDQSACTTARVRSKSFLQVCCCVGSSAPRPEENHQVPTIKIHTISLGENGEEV

[5] = biological target: Serotonin 2 (5-HT2) receptor; experiment: Compound was tested for its binding affinity towards 5-hydroxytryptamine 2 receptor using [3H]ketanserin from guinea pig frontal cortex; format: tissue-based, Cavia porcellus
[6] = biological target: T3, Alpha-1B adrenergic receptor (Rattus norvegicus, UniProt P15823); experiment: Compound was tested for its binding affinity towards Alpha-1B adrenergic receptor using [3H]prazosin from rat liver
T3 sequence (P15823 whole entry): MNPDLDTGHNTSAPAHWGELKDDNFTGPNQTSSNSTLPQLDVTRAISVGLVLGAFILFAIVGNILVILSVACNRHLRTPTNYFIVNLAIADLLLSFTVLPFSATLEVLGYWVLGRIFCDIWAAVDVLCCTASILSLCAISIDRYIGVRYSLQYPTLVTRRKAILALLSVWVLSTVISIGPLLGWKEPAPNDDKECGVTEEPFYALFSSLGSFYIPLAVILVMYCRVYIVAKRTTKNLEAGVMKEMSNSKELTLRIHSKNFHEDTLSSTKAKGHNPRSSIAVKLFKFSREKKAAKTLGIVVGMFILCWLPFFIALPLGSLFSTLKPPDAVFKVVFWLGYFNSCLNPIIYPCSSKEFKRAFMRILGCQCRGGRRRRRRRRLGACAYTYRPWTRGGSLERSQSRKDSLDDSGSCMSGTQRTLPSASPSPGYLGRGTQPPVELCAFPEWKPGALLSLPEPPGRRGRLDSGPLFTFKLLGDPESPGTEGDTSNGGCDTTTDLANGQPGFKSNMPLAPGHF

D(2) dopamine receptor = D(2) dopamine receptor (Rattus norvegicus, UniProt P61169); experiment: Compound was tested for its binding affinity towards Dopamine receptor D2 using [3H]spiperone from rat striatum
Sequence of D(2) dopamine receptor (P61169 whole entry): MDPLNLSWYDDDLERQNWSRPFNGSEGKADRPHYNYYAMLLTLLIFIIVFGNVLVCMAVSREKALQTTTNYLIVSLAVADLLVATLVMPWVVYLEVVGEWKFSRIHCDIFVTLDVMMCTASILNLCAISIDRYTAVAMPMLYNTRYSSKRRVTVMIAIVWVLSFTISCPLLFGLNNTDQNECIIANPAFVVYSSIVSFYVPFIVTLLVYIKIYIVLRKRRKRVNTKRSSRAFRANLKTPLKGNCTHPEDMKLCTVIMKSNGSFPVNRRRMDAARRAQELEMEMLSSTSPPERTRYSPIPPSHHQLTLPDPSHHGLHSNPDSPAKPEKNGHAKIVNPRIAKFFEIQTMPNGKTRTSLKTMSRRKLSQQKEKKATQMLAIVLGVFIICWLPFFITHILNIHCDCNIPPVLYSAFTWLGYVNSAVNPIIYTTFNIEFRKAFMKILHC

Sequence of Muscarinic acetylcholine receptor M3 (P08483 whole entry): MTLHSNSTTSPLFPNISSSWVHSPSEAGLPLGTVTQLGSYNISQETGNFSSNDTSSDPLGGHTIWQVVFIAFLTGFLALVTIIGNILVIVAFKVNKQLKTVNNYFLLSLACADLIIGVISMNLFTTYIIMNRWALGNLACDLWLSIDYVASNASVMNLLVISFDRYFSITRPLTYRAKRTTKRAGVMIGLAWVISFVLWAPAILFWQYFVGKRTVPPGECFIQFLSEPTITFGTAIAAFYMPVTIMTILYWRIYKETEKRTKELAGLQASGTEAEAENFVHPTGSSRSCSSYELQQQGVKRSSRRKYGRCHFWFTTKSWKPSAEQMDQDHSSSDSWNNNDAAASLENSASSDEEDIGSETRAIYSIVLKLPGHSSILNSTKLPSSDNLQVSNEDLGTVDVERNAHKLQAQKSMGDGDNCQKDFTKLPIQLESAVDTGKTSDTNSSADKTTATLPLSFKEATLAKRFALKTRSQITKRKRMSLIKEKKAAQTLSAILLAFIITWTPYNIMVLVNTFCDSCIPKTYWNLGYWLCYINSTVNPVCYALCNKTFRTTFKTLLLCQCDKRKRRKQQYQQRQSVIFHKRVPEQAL
Sequence of Glutamate receptor ionotropic, NMDA 2C (Q00961 whole entry): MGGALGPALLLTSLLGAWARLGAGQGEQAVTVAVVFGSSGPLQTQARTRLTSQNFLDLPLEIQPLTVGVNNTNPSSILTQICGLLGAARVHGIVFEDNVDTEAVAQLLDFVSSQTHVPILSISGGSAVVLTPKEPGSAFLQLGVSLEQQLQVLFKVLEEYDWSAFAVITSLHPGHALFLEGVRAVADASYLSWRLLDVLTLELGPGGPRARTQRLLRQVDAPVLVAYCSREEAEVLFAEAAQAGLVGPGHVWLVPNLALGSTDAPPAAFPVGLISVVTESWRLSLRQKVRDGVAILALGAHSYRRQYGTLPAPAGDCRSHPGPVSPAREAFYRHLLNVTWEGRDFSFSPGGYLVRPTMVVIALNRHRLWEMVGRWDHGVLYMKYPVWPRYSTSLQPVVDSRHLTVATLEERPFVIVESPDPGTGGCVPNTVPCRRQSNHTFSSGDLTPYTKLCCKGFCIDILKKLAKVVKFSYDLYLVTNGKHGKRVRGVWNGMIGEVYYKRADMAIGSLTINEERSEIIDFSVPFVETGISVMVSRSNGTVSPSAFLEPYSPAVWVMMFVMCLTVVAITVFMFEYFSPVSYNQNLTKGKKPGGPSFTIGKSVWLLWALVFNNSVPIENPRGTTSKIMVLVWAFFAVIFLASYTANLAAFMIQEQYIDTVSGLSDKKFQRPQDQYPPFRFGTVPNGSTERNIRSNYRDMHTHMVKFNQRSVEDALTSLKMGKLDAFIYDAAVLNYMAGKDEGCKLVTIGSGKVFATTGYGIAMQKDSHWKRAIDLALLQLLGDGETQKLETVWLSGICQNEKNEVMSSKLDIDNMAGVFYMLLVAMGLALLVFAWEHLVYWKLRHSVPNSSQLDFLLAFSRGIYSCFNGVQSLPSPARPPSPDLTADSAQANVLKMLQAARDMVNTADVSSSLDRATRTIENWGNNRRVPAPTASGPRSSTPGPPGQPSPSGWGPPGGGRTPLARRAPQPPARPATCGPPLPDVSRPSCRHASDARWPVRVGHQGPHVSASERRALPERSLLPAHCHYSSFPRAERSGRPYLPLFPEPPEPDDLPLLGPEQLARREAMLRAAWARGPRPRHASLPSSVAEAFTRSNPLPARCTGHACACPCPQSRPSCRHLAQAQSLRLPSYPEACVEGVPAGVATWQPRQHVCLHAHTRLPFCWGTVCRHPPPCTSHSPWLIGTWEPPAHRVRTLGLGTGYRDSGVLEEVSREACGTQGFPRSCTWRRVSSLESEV

| Structure (SMILES) | Ki [1] | Ki [2] | Ki (Sigma 2 receptor) | Ki (Opioid receptor) | Ki [3] | Ki [4] | Ki [5] | Ki [6] | Ki (D(2) dopamine receptor) |
| --- | --- | --- | --- | --- | --- | --- | --- | --- | --- |
| O=C1c2ccccc2CCC12CCN(Cc1ccccc1)CC2 | > 10 µM | > 10 µM | 0.01 µM | > 10 µM | 2.7 µM | > 10 µM | 0.218 µM | > 10 µM | – |
| CN1CCN(C2=Nc3cc(Cl)ccc3Nc3ccccc32)CC1 [CLOZAPINE] | – | – | > 10 µM | – | – | – | – | – | – |
| [O-][S+]1c2ccccc2CCC12CCN(Cc1ccccc1)CC2 (stereo unspecified) | > 10 µM | > 10 µM | 1.7 µM | > 10 µM | > 10 µM | > 10 µM | > 10 µM | > 10 µM | > 10 µM |
| O=S1(=O)c2ccccc2CCC12CCN(Cc1ccccc1)CC2 | > 10 µM | > 10 µM | 1.8 µM | > 10 µM | > 10 µM | > 10 µM | > 10 µM | > 10 µM | > 10 µM |
| c1ccc(CN2CCC3(CCc4ccccc4S3)CC2)cc1 | > 10 µM | > 10 µM | 0.416 µM | > 10 µM | 10.8 µM | > 10 µM | 7.6 µM | > 10 µM | 10.4 µM |
| c1ccc(CN2CCC3(CCc4ccccc4O3)CC2)cc1 | > 10 µM | > 10 µM | 0.022 µM | > 10 µM | > 10 µM | > 10 µM | > 10 µM | > 10 µM | > 10 µM |
| COc1ccccc1CNCCCCCCNCCCCCCCCNCCCCCCNCc1ccccc1OC [METHOCTRAMINE] | – | 0.998 µM | – | – | – | – | – | – | – |
